Results taken from ChEMBL document CHEMBL1156368, “(+)-epi-Alpha-bisabolol [correction of bisbolol] is the wound-healing principle of Peperomia galioides: investigation of the in vivo wound-healing activity of related terpenoids” (J Nat Prod, 2001).
Values after ≈ are worked out from the molar mass of the structure shown. Active and inactive are the calls of the source. No cut-off for these calls is given here.

Tests used:
[1] = Growth inhibition of mouse 3T3 cells; type: cell-based; settings: NIH3T3 cells
Mus musculus = organism: Mus musculus; experiment: Cicatrizant activity in mouse assessed as wound healing by tensile strength method; type: functional

Row | SMILES | GI50 [1] [µg/mL] | ED50 (Mus musculus)
1 | CC(C)=CCC[C@](C)(O)[C@H]1CC=C(C)CC1 | 8 (≈ 36 µM) | 
2 | C=CC(C)(O)CC/C=C(\C)CCC=C(C)C (stereo not drawn) |  | inactive
3 | CC(C)=CCC/C(C)=C/CC/C(C)=C/CO |  | inactive
4 | CC1=CC[C@@H](C(C)(C)O)CC1 [ALPHA-TERPINEOL] | 17 (≈ 110 µM) | 240 mg/kg
5 | CC(C)=CCC[C@](C)(O)[C@@H]1CC=C(C)CC1 [LEVOMENOL] | 84 (≈ 378 µM) | 228 mg/kg
6 | COc1ccc2c(=O)oc3c(OC)cc(CCN(C)C)c4c(=O)oc1c2c34 [TASPINE] |  | 15 mg/kg
